The values that follow come from publication PMC4295349, “Synthetic Antimicrobial Peptides Exhibit Two Different Binding Mechanisms to the Lipopolysaccharides Isolated from Pseudomonas aeruginosa and Klebsiella pneumoniae” (International Journal of Medicinal Chemistry, 2014).

Like-named read-outs stand apart in the source and are kept apart here. Where a SMILES comes first, the peptide text is derived from it. [ ]: non-standard residue; d: D form. ξ: configuration not given here. Oic = O=C(O)[C@@H]1C[C@@H]2CCCC[C@@H]2N1; Oic(3aξ,7aξ) = O=C(O)[C@@H]1CC2CCCCC2N1; Tic = O=C(O)[C@@H]1Cc2ccccc2CN1; Orn = NCCC[C@H](N)C(=O)O; Dap = NC[C@H](N)C(=O)O

The test system of series [1] is K. pneumoniae BAMC 07-18. Conditions: for in vitro inhibitory activity: against K. pneumoniae.
Series [2] has as its system P. aeruginosa PAO1. Format: cell-based, Pseudomonas aeruginosa. The source says:
Table 3 In vitro minimum inhibitory concentration (MIC) and minimum bactericide concentration (MBC) activity against K. pneumonia and P. aeruginosa. | column: P. aeruginosa PAO1 / MBC (µg/mL)/(μM)

The format of series [3] is physicochemical. As for the experimental part: (§1) Peptide solutions were prepared by dissolving approximately 2 mg of AMPs 70, 74, 75, 79, or 80 in 1.0 mL of phosphate buffer. […] For the LPS liposome studies 350 μL of stock LPS solution was mixed with 50 μL of stock peptide solution. CD spectroscopy is a sensitive technique, so it is commonly used to monitor conformational changes in peptides and proteins. […] All CD spectra were obtained by acquiring 8 scans using a 0.1 mm cylindrical quartz cell with a spectral range of 260 to 195 nm (at wavelengths below 195 nm the HTV exceeded 400, and therefore data collection was terminated at 195 nm) and a scanning rate of 20 nm/min. Acquisition parameters were bandwidth 1 nm, data pitch 0.2 nm, response time 2.0 s, and 5 mdeg sensitivity. Spectra were collected at room temperature (298 K). Contributions from LPS were eliminated by subtracting from the corresponding AMP-LPS solutions. All analyses of CD spectra were conducted after smoothing with a means-movement function.

For series [4], the system named is K. pneumoniae BAMC 07-18. Format: cell-based, Klebsiella pneumoniae. An excerpt:
Table 3 In vitro minimum inhibitory concentration (MIC) and minimum bactericide concentration (MBC) activity against K. pneumonia and P. aeruginosa. | column: K. pneumoniae BAMC 07-18 / MBC (μg/mL)/(μM)

Series [5] deals with P. aeruginosa PAO1. The settings on record: for in vitro inhibitory activity: against P. aeruginosa.
The test system of series [6] is LPS isolated from P. aeruginosa or K. pneumoniae. The series can be described thus: Precipitation of AMP-LPS mixtures prepared for CD. It is filed as physicochemical. The settings on record: 350 μL stock LPS + 50 μL stock peptide, phosphate buffer; CD spectra could not be obtained. On the procedure: as §1
[7] abbreviates: K. pneumoniae BAMC 07-18, light face value.
The mark [8] stands for this setting: P. aeruginosa PAO1, light face value.

For the compound `CC(C)C[C@H](NC(=O)[C@@H](N)CCCCN)C(=O)N1Cc2ccccc2C[C@H]1C(=O)N1[C@H](C(=O)N[C@@H](CCCCN)C(=O)N2Cc3ccccc3C[C@H]2C(=O)N2[C@H](C(=O)N[C@@H](Cc3ccccc3)C(=O)N3Cc4ccccc4C[C@H]3C(=O)N3[C@H](C(=O)N[C@@H](CCCCN)C(=O)N4Cc5ccccc5C[C@H]4C(=O)N4[C@H](C(=O)N[C@@H](Cc5ccccc5)C(=O)N5Cc6ccccc6C[C@H]5C(=O)N5[C@H](C(=O)N[C@@H](CCCCN)C(=O)N6Cc7ccccc7C[C@H]6C(=O)N6[C@H](C(=O)N[C@@H](CCCCN)C(=O)N[C@@H](CCCNC(=N)N)C(N)=O)C[C@@H]7CCCC[C@@H]76)C[C@@H]6CCCC[C@@H]65)C[C@@H]5CCCC[C@@H]54)C[C@@H]4CCCC[C@@H]43)C[C@@H]3CCCC[C@@H]32)C[C@@H]2CCCC[C@@H]21` [AMP 22] (H-KL[Tic][Oic]K[Tic][Oic]F[Tic][Oic]K[Tic][Oic]F[Tic][Oic]K[Tic][Oic]KR-NH2), the MIC in series [1] (BAMC 07-18) and in series [5] (PAO1) was over 100 µg/mL each time. In addition, the “in vitro inhibitory activity” value in series [1] and in series [5] was at least 100 µg/mL in each case. In addition, the MBC in series [2] (PAO1) and in series [4] (BAMC 07-18) was over 100 µg/mL throughout. Besides, in series [3], the “solubility in phosphate buffer at approximately 2 mg in 1.0 mL” value (from here on “solubility in phosphate buffer”) was “solubility issues”.

On to `CC(C)C[C@H](NC(=O)[C@@H](N)CCCN)C(=O)N1Cc2ccccc2C[C@H]1C(=O)N1[C@H](C(=O)N[C@@H](CCCN)C(=O)N2Cc3ccccc3C[C@H]2C(=O)N2[C@H](C(=O)N[C@@H](Cc3ccccc3)C(=O)N3Cc4ccccc4C[C@H]3C(=O)N3[C@H](C(=O)N[C@@H](CCCN)C(=O)N4Cc5ccccc5C[C@H]4C(=O)N4[C@H](C(=O)N[C@@H](Cc5ccccc5)C(=O)N5Cc6ccccc6C[C@H]5C(=O)N5[C@H](C(=O)N[C@@H](CCCN)C(=O)N6Cc7ccccc7C[C@H]6C(=O)N6[C@H](C(=O)N[C@@H](CCCN)C(=O)N[C@@H](CCCN)C(=O)N[C@@H](CCCN)C(=O)N[C@@H](CCCN)C(N)=O)C[C@@H]7CCCC[C@@H]76)C[C@@H]6CCCC[C@@H]65)C[C@@H]5CCCC[C@@H]54)C[C@@H]4CCCC[C@@H]43)C[C@@H]3CCCC[C@@H]32)C[C@@H]2CCCC[C@@H]21` [AMP 71] (H-[Orn]L[Tic][Oic][Orn][Tic][Oic]F[Tic][Oic][Orn][Tic][Oic]F[Tic][Oic][Orn][Tic][Oic][Orn][Orn][Orn][Orn]-NH2), for which, in series [6], the “precipitation in the presence of either LPS” value is reported as “precipitation of uncharacterized AMP-LPS complexes”. For the same compound, the minimal inhibitory concentration (MIC) in series [1] (BAMC 07-18) was determined as 31.2 µM; in series [1] (setting [7]), 100 µg/mL; in series [5] (setting [8]), 100 µg/mL; in series [5] (PAO1), 31.2 µM.

Regarding `CC(C)C[C@H](NC(=O)[C@@H](N)CN)C(=O)N1Cc2ccccc2C[C@H]1C(=O)N1[C@H](C(=O)N[C@@H](CN)C(=O)N2Cc3ccccc3C[C@H]2C(=O)N2[C@H](C(=O)N[C@@H](Cc3ccccc3)C(=O)N3Cc4ccccc4C[C@H]3C(=O)N3[C@H](C(=O)N[C@@H](CN)C(=O)N4Cc5ccccc5C[C@H]4C(=O)N4[C@H](C(=O)N[C@@H](Cc5ccccc5)C(=O)N5Cc6ccccc6C[C@H]5C(=O)N5[C@H](C(=O)N[C@@H](CN)C(=O)N6Cc7ccccc7C[C@H]6C(=O)N6[C@H](C(=O)N[C@@H](CN)C(=O)N[C@@H](CN)C(=O)N[C@@H](CN)C(=O)N[C@@H](CN)C(N)=O)C[C@@H]7CCCC[C@@H]76)C[C@@H]6CCCC[C@@H]65)C[C@@H]5CCCC[C@@H]54)C[C@@H]4CCCC[C@@H]43)C[C@@H]3CCCC[C@@H]32)C[C@@H]2CCCC[C@@H]21` [AMP 72] (H-[Dap]L[Tic][Oic][Dap][Tic][Oic]F[Tic][Oic][Dap][Tic][Oic]F[Tic][Oic][Dap][Tic][Oic][Dap][Dap][Dap][Dap]-NH2), the “precipitation in the presence of either LPS” value in series [6] is listed as “precipitation of uncharacterized AMP-LPS complexes”. The minimal inhibitory concentration (MIC) in series [1] (BAMC 07-18) is 33.6 µM; in series [1] (setting [7]) it was 100 µg/mL; in series [5] (setting [8]), 50 µg/mL; in series [5] (PAO1) it was 16.8 µM. For the same compound, the MBC in series [2] (setting [8]) came to 100 µg/mL; in series [2] (PAO1) it was 33.6 µM; in series [4] (BAMC 07-18), 33.6 µM; in series [4] (setting [7]), 100 µg/mL.

In the case of `CC(C)C[C@H](NC(=O)[C@@H](N)CCCCN)C(=O)N1Cc2ccccc2C[C@H]1C(=O)N1C2CCCCC2C[C@H]1C(=O)NCC(=O)N[C@@H](CCCCN)C(=O)N1Cc2ccccc2C[C@H]1C(=O)N1C2CCCCC2C[C@H]1C(=O)NCC(=O)N[C@@H](Cc1ccccc1)C(=O)N1Cc2ccccc2C[C@H]1C(=O)N1C2CCCCC2C[C@H]1C(=O)NCC(=O)N[C@@H](CCCCN)C(=O)N1Cc2ccccc2C[C@H]1C(=O)N1C2CCCCC2C[C@H]1C(=O)NCC(=O)N[C@@H](Cc1ccccc1)C(=O)N1Cc2ccccc2C[C@H]1C(=O)N1C2CCCCC2C[C@H]1C(=O)NCC(=O)N[C@@H](CCCCN)C(=O)N1Cc2ccccc2C[C@H]1C(=O)N1C2CCCCC2C[C@H]1C(=O)N[C@@H](CCCCN)C(=O)N[C@@H](CCCCN)C(=O)N[C@@H](CCCCN)C(=O)N[C@@H](CCCCN)C(N)=O` (stereo partly shown) [AMP 76] (H-KL[Tic][Oic(3aξ,7aξ)]GK[Tic][Oic(3aξ,7aξ)]GF[Tic][Oic(3aξ,7aξ)]GK[Tic][Oic(3aξ,7aξ)]GF[Tic][Oic(3aξ,7aξ)]GK[Tic][Oic(3aξ,7aξ)]KKKK-NH2), the MIC in series [1] (BAMC 07-18) was 13.9 µM; in series [1] (setting [7]), 50 µg/mL; in series [5] (setting [8]) it was 50 µg/mL; in series [5] (PAO1), 13.9 µM. Moreover, the MBC in series [2] (setting [8]) stood at 50 µg/mL; in series [2] (PAO1), 13.9 µM; in series [4] (BAMC 07-18) it was 13.9 µM; in series [4] (setting [7]), 50 µg/mL. The “solubility in phosphate buffer” value in series [3] is reported as “solubility issues”. In series [5], the “in vitro inhibitory activity” value was 50 µg/mL.

Take `CC(C)C[C@H](NC(=O)[C@@H](N)CCCCN)C(=O)N1Cc2ccccc2C[C@H]1C(=O)N1[C@H](C(=O)N[C@@H](CCCCN)C(=O)N2Cc3ccccc3C[C@H]2C(=O)N2[C@H](C(=O)N[C@@H](Cc3ccccc3)C(=O)NCC(=O)N3Cc4ccccc4C[C@H]3C(=O)N3[C@H](C(=O)N[C@@H](CCCCN)C(=O)N4Cc5ccccc5C[C@H]4C(=O)N4[C@H](C(=O)N[C@@H](Cc5ccccc5)C(=O)NCC(=O)N5Cc6ccccc6C[C@H]5C(=O)N5[C@H](C(=O)N[C@@H](CCCCN)C(=O)N6Cc7ccccc7C[C@H]6C(=O)N6[C@H](C(=O)N[C@@H](CCCCN)C(=O)N[C@@H](CCCCN)C(=O)N[C@@H](CCCCN)C(=O)N[C@@H](CCCCN)C(N)=O)C[C@@H]7CCCC[C@@H]76)C[C@@H]6CCCC[C@@H]65)C[C@@H]5CCCC[C@@H]54)C[C@@H]4CCCC[C@@H]43)C[C@@H]3CCCC[C@@H]32)C[C@@H]2CCCC[C@@H]21` [AMP 77] (H-KL[Tic][Oic]K[Tic][Oic]FG[Tic][Oic]K[Tic][Oic]FG[Tic][Oic]K[Tic][Oic]KKKK-NH2): the MIC in series [1] (BAMC 07-18) was 14.6 µM; in series [1] (setting [7]), 50 µg/mL; in series [5] (setting [8]) it was 50 µg/mL; in series [5] (PAO1), 14.6 µM. For the same compound, the MBC was 50 µg/mL in series [2] (setting [8]), 14.6 µM in series [2] (PAO1), 29.2 µM in series [4] (BAMC 07-18) and 100 µg/mL in series [4] (setting [7]). For the same compound, the “solubility in phosphate buffer” value in series [3] is reported as “solubility issues”. For the same compound, in series [5], the “in vitro inhibitory activity” value was determined as 50 µg/mL.

For `CC(C)C[C@H](NC(=O)[C@@H](N)CCCCN)C(=O)N1Cc2ccccc2C[C@H]1C(=O)N1C2CCCCC2C[C@H]1C(=O)N[C@@H](CCCCN)C(=O)NCC(=O)N1Cc2ccccc2C[C@H]1C(=O)N1C2CCCCC2C[C@H]1C(=O)N[C@@H](Cc1ccccc1)C(=O)N1Cc2ccccc2C[C@H]1C(=O)N1C2CCCCC2C[C@H]1C(=O)N[C@@H](CCCCN)C(=O)NCC(=O)N1Cc2ccccc2C[C@H]1C(=O)N1C2CCCCC2C[C@H]1C(=O)N[C@@H](Cc1ccccc1)C(=O)N1Cc2ccccc2C[C@H]1C(=O)N1C2CCCCC2C[C@H]1C(=O)N[C@@H](CCCCN)C(=O)NCC(=O)N1Cc2ccccc2C[C@H]1C(=O)N1C2CCCCC2C[C@H]1C(=O)N[C@@H](CCCCN)C(=O)N[C@@H](CCCCN)C(=O)N[C@@H](CCCCN)C(=O)N[C@@H](CCCCN)C(N)=O` (stereo partly shown) [AMP 78] (H-KL[Tic][Oic(3aξ,7aξ)]KG[Tic][Oic(3aξ,7aξ)]F[Tic][Oic(3aξ,7aξ)]KG[Tic][Oic(3aξ,7aξ)]F[Tic][Oic(3aξ,7aξ)]KG[Tic][Oic(3aξ,7aξ)]KKKK-NH2), the minimal inhibitory concentration (MIC) in series [1] (BAMC 07-18) is 14.3 µM; in series [1] (setting [7]), 50 µg/mL; in series [5] (setting [8]), 50 µg/mL; in series [5] (PAO1), 14.3 µM. For the same compound, the “in vitro inhibitory activity” value in series [1] and in series [5] was 50 µg/mL in each case. Further, the MBC in series [2] (setting [8]) was 50 µg/mL; in series [2] (PAO1) it was 14.3 µM; in series [4] (BAMC 07-18), 28.6 µM; in series [4] (setting [7]) it was 100 µg/mL. Also, the “solubility in phosphate buffer” value in series [3] is listed as “solubility issues”.
